Like-named read-outs stand apart in the source and are kept apart here.
How the values were obtained:
CDK4-CYCLIND1 = CDK4-CYCLIND1 (Homo sapiens, UniProt P11802); assay: Microfluidic LabChip inhibition assay, CDK4-CYCLIND1; format: biochemical; conditions: ATP 200 μM
Method: (§1) The reaction was terminated by the addition of EDTA. The plates were analyzed using a Caliper LabChip 3000.
(§2) Additional inhibition assays were performed as described above.

CDK6-CYCLIND3 = CDK6-CYCLIND3 (Homo sapiens, UniProt Q00534); assay: Microfluidic LabChip inhibition assay, CDK6-CYCLIND3; format: biochemical; conditions: ATP 300 μM
Sequence of CDK6-CYCLIND3 (Q00534 whole entry): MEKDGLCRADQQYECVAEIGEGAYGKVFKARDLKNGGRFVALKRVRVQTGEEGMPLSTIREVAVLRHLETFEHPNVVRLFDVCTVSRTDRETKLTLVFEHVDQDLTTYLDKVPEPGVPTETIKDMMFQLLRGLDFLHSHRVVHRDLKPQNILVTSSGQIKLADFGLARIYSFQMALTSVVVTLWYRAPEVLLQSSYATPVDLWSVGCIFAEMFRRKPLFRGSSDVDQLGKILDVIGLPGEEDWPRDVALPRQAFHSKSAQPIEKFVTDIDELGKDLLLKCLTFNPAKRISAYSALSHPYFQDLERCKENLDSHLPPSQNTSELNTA
Sequence of CDK6-CYCLIND3 (P30281 whole entry partner): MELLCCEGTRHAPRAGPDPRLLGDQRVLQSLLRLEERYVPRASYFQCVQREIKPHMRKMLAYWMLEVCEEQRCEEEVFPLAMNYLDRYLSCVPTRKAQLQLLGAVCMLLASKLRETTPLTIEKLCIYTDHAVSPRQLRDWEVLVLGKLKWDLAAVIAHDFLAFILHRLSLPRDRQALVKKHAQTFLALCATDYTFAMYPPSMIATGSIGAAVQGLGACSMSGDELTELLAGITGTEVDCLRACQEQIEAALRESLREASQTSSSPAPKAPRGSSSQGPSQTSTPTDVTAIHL
Method: as §1, §2

[1] = Table 2, 25° C., read-out: CDK4 IC50
[2] = Table 2, 25° C., read-out: CDK6 IC50
[3] = Table 3a, second values in parentheses on the line below, not explained, read-out: CDK4 CyclinD1 IC50
[4] = Table 3a, read-out: CDK6 CyclinD3 IC50

Sequence of CDK4-CYCLIND1 (P11802 whole entry): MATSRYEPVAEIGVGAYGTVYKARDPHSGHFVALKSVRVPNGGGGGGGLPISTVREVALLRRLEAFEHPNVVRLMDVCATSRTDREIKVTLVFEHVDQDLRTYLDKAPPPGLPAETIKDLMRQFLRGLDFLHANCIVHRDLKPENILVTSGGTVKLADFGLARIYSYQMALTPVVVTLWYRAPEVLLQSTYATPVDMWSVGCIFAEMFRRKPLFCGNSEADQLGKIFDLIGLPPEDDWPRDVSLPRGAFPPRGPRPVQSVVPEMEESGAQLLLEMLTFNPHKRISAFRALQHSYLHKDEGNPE
Sequence of CDK4-CYCLIND1 (P24385 whole entry partner): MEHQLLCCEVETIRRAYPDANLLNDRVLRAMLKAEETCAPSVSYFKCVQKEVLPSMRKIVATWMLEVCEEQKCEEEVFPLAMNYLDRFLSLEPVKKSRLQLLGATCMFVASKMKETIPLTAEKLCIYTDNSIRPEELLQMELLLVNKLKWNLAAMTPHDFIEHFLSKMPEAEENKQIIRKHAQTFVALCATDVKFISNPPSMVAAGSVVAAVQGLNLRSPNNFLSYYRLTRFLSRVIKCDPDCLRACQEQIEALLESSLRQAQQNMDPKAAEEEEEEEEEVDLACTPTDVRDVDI

Compound | IC50 (CDK4-CYCLIND1; [1]) [nM] | IC50 (CDK6-CYCLIND3; [2]) [nM] | IC50 (CDK4-CYCLIND1; [3]) [nM] | IC50 (CDK6-CYCLIND3; [4]) [nM] | IC50 (CDK4-CYCLIND1; Table 3b, second values in parentheses on the line below, not explained, read-out: CDK4 CyclinD1 IC50) [nM]
CN(C)[C@H]1CCN(C(=O)c2ccc(Nc3ncc4cc(C#N)c(=O)n(C5CCCC5)c4n3)cc2)C1 [Compound B35, (S)-8-cyclopentyl-2-((4-(3-(dimethylamino)pyrrolidine-1-carbonyl)phenyl)amino)-7-oxo-7,8-dihydropyrido[2,3-d]pyrimidine-6-carbonitrile] | 3.84 | 22.3 | – | – | –
N#Cc1ccc(N2CCN(c3ncc4cc(C#N)c(=O)n(C5CCCC5)c4n3)CC2)cc1 [Compound B21, 2-(4-(4-cyanophenyl)piperazin-1-yl)-8-cyclopentyl-7-oxo-7,8-dihydropyrido[2,3-d]pyrimidine-6-carbonitrile] | > 30000 | > 30000 | – | – | –
CN1CCN(c2ccc(Nc3ncc4cc(C#N)c(=O)n(C56CC(C5)C6)c4n3)nc2)CC1 [Compound B3, 8-(bicyclo[1.1.1]pentan-1-yl)-2-((5-(4-methylpiperazin-1-yl)pyridin-2-yl)amino)-7-oxo-7,8-dihydropyrido[2,3-d]pyrimidine-6-carbonitrile] | 504 | 432 | – | – | –
CN1CCN(c2ccc(Nc3ncc4cc(C#N)c(=O)n(C56CC(C5)C6)c4n3)cc2)CC1 [Compound B1, 8-(bicyclo[1.1.1]pentan-1-yl)-2-((4-(4-methylpiperazin-1-yl)phenyl)amino)-7-oxo-7,8-dihydropyrido[2,3-d]pyrimidine-6-carbonitrile] | 31.1 | 41.5 | – | – | –
CC(C)N1CCN(c2cnc(Nc3ncc4cc(C#N)c(=O)n(C5CCCC5)c4n3)cc2C(F)(F)F)CC1 [Compound B29, 8-cyclopentyl-2-((5-(4-isopropylpiperazin-1-yl)-4-(trifluoromethyl)pyridin-2-yl)amino)-7-oxo-7,8-dihydropyrido[2,3-d]pyrimidine-6-carbonitrile] | > 30000 | > 30000 | – | – | –
CN(C)[C@H]1CCN(c2ccc(Nc3ncc4cc(C#N)c(=O)n(C5CCCC5)c4n3)nc2)C1 [Compound B43, (S)-8-cyclopentyl-2-((5-(3-(dimethylamino)pyrrolidin-1-yl)pyridin-2-yl)amino)-7-oxo-7,8-dihydropyrido[2,3-d]pyrimidine-6-carbonitrile] | 46.9 | 61.5 | – | – | –
CNC(=O)c1cc2cnc(Nc3ccc(N4CCN(C)CC4)cc3)nc2n(C2CCCC2)c1=O [Compound B143, 8-cyclopentyl-N-methyl-2-((4-(4-methylpiperazin-1-yl)phenyl)amino)-7-oxo-7,8-dihydropyrido[2,3-d]pyrimidine-6-carboxamide] | – | – | 17 | 134 | –
N#Cc1cc2cnc(Nc3ccc(OCCN4CCCC4)nc3)nc2n(C2CCCC2)c1=O [Compound B28, 8-cyclopentyl-7-oxo-2-((6-(2-(pyrrolidin-1-yl)ethoxy)pyridin-3-yl)amino)-7,8-dihydropyrido[2,3-d]pyrimidine-6-carbonitrile] | 45 | 120 | – | – | –
N#Cc1cc2cnc(Nc3ccc(N4CCC(N5CCOCC5)CC4)cc3)nc2n(C2CCCC2)c1=O [Compound B38, 8-cyclopentyl-2-((4-(4-morpholinopiperidin-1-yl)phenyl)amino)-7-oxo-7,8-dihydropyrido[2,3-d]pyrimidine-6-carbonitrile] | 9.81 | 29.8 | – | – | –
CN(C)CCOc1ccc(Nc2ncc3cc(C#N)c(=O)n(C4CCCC4)c3n2)nc1 [Compound B6, 8-cyclopentyl-2-((5-(2-(dimethylamino)ethoxy)pyridin-2-yl)amino)-7-oxo-7,8-dihydropyrido[2,3-d]pyrimidine-6-carbonitrile] | 97.8 | 120 | – | – | –
CN1CCN(c2ccc(Nc3ncc4cc(C#N)c(=O)n(C56CC(C5)C6)c4n3)cc2F)CC1 [Compound B148, 8-(bicyclo[1.1.1]pentan-1-yl)-2-((3-fluoro-4-(4-methylpiperazin-1-yl)phenyl)amino)-7-oxo-7,8-dihydropyrido[2,3-d]pyrimidine-6-carbonitrile] | – | – | 59.6 | 102 | 59.6
CN(C)CCOc1ccc(Nc2ncc3cc(C#N)c(=O)n(C4CCCC4)c3n2)cn1 [Compound B11, 8-cyclopentyl-2-((6-(2-(dimethylamino)ethoxy)pyridin-3-yl)amino)-7-oxo-7,8-dihydropyrido[2,3-d]pyrimidine-6-carbonitrile] | 37.6 | 133 | – | – | –
CCN1CCN(Cc2ccc(Nc3ncc4cc(C#N)c(=O)n(C5CCCC5)c4n3)nc2)CC1 [Compound B37, 8-cyclopentyl-2-((5-((4-ethylpiperazin-1-yl)methyl)pyridin-2-yl)amino)-7-oxo-7,8-dihydropyrido[2,3-d]pyrimidine-6-carbonitrile] | 46.3 | 93.6 | – | – | –
N#Cc1cc2cnc(Nc3ccc(N4CCC(N5CCOCC5)CC4)nc3)nc2n(C2CCCC2)c1=O [Compound B40, 8-cyclopentyl-2-((6-(4-morpholinopiperidin-1-yl)pyridin-3-yl)amino)-7-oxo-7,8-dihydropyrido[2,3-d]pyrimidine-6-carbonitrile] | 11.3 | 30.8 | – | – | –
CN(C)[C@H]1CCN(c2ccc(Nc3ncc4cc(C#N)c(=O)n(C5CCCC5)c4n3)cc2)C1 [Compound B42, (S)-8-cyclopentyl-2-((4-(3-(dimethylamino)pyrrolidin-1-yl)phenyl)amino)-7-oxo-7,8-dihydropyrido[2,3-d]pyrimidine-6-carbonitrile] | 2.31 | 6.01 | – | – | –
CN(C)[C@H]1CCN(C(=O)c2ccc(Nc3ncc4cc(C#N)c(=O)n(C5CCCC5)c4n3)cc2F)C1 [Compound B36, (S)-8-cyclopentyl-2-((4-(3-(dimethylamino)pyrrolidine-1-carbonyl)-3-fluorophenyl)amino)-7-oxo-7,8-dihydropyrido[2,3-d]pyrimidine-6-carbonitrile] | 13.2 | 73.1 | – | – | –

Continued, values first:

IC50 (CDK4-CYCLIND1; [1]) [nM] | IC50 (CDK6-CYCLIND3; [2]) [nM] | IC50 (CDK4-CYCLIND1; [3]) [nM] | IC50 (CDK6-CYCLIND3; [4]) [nM] | IC50 (CDK4-CYCLIND1; Table 3b, second values in parentheses on the line below, not explained, read-out: CDK4 CyclinD1 IC50) [nM] | Compound
1.21 | 3.89 | – | – | – | N#Cc1cc2cnc(Nc3ccc(N4CC5(CNC5)C4)c(F)c3)nc2n(C2CCCC2)c1=O [Compound B34, 8-cyclopentyl-2-((3-fluoro-4-(2,6-diazaspiro[3.3]heptan-2-yl)phenyl)amino)-7-oxo-7,8-dihydropyrido[2,3-d]pyrimidine-6-carbonitrile]
571 | 798 | – | – | – | N#Cc1cc2cnc(Nc3ccc(N4CCN5CCC4CC5)cn3)nc2n(C2CCCC2)c1=O [Compound B13, 2-((5-(1,4-diazabicyclo[3.2.2]nonan-4-yl)pyridin-2-yl)amino)-8-cyclopentyl-7-oxo-7,8-dihydropyrido[2,3-d]pyrimidine-6-carbonitrile]
21.1 | 33.4 | – | – | – | N#Cc1cc2cnc(Nc3ccc(N4CC5(CNC5)C4)cn3)nc2n(C2CCCC2)c1=O [Compound B32, 2-((5-(2,6-diazaspiro[3.3]heptan-2-yl)pyridin-2-yl)amino)-8-cyclopentyl-7-oxo-7,8-dihydropyrido[2,3-d]pyrimidine-6-carbonitrile]
3.68 | 9.86 | – | – | – | CN(C)[C@H]1CCN(c2ccc(Nc3ncc4cc(C#N)c(=O)n(C5CCCC5)c4n3)cc2F)C1 [Compound B45, (S)-8-cyclopentyl-2-((4-(3-(dimethylamino)pyrrolidin-1-yl)-3-fluorophenyl)amino)-7-oxo-7,8-dihydropyrido[2,3-d]pyrimidine-6-carbonitrile]
1.68 | 4.76 | – | – | – | CN1CCN(c2ccc(Nc3ncc4cc(C#N)c(=O)n(C5CCCC5)c4n3)cc2)CC1 [ON123300]
1.8 | 6.32 | – | – | – | CC(C)N1CCN(c2ccc(Nc3ncc4cc(C#N)c(=O)n(C5CCCC5)c4n3)cc2)CC1 [Compound B16, 8-cyclopentyl-2-((4-(4-isopropylpiperazin-1-yl)phenyl)amino)-7-oxo-7,8-dihydropyrido[2,3-d]pyrimidine-6-carbonitrile]
7.88 | 27.9 | – | – | – | N#Cc1cc2cnc(Nc3ccc(N4CCC(N5CCOCC5)CC4)c(F)c3)nc2n(C2CCCC2)c1=O [Compound B41, 8-cyclopentyl-2-((3-fluoro-4-(4-morpholinopiperidin-1-yl)phenyl)amino)-7-oxo-7,8-dihydropyrido[2,3-d]pyrimidine-6-carbonitrile]
6.93 | 19.7 | – | – | – | N#Cc1cc2cnc(Nc3ccc(N4CCNCC4)nc3)nc2n(C2CCCC2)c1=O [Compound B22, 8-cyclopentyl-7-oxo-2-((6-(piperazin-1-yl)pyridin-3-yl)amino)-7,8-dihydropyrido[2,3-d]pyrimidine-6-carbonitrile]
2.31 | 10.4 | – | – | – | CC(C)N1CCN(c2ccc(Nc3ncc4cc(C#N)c(=O)n(C5CCCC5)c4n3)cc2F)CC1 [Compound B18, 8-cyclopentyl-2-((3-fluoro-4-(4-isopropylpiperazin-1-yl)phenyl)amino)-7-oxo-7,8-dihydropyrido[2,3-d]pyrimidine-6-carbonitrile]
2.03 | 7.27 | – | – | – | N#Cc1cc2cnc(Nc3ccc(N4CCNCC4)c(F)c3)nc2n(C2CCCC2)c1=O [Compound B14, 8-cyclopentyl-2-((3-fluoro-4-(piperazin-1-yl)phenyl)amino)-7-oxo-7,8-dihydropyrido[2,3-d]pyrimidine-6-carbonitrile]
15.4 | 36.8 | – | – | – | N#Cc1cc2cnc(Nc3ccc(N4CCNCC4)cc3F)nc2n(C2CCCC2)c1=O [Compound B26, 8-cyclopentyl-2-((2-fluoro-4-(piperazin-1-yl)phenyl)amino)-7-oxo-7,8-dihydropyrido[2,3-d]pyrimidine-6-carbonitrile]
457 | 1400 | – | – | – | CN1CCN(c2ccc(Nc3ncc4cc(C#N)c(=O)n(C5CCCC5)c4n3)c(F)c2)CC1 [Compound B27, 8-cyclopentyl-2-((2-fluoro-4-(4-methylpiperazin-1-yl)phenyl)amino)-7-oxo-7,8-dihydropyrido[2,3-d]pyrimidine-6-carbonitrile]
